The values that follow come from PubChem BioAssay AID328 (DTP/NCI, 2004).

Where “and” joins values, the source holds several entries; their conditions need not be identical. Identical values can stand only once. Toxic doses and inconclusive results are not listed.

This assay concerns BDF1 mice, P388 leukemia ip, median survival T/C. In words: NCI In Vivo Anticancer Drug Screen. Data for tumor model P388 Leukemia (intraperitoneal) in B6D2F1 (BDF1) mice. The note with it: endpoint: median survival time, higher = longer survival. The procedure, abridged:
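Mice carrying the transplantable tumour receive compound or vehicle. Survival is followed in each arm, and the treated measure is divided by the vehicle measure.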

The mark [1] stands for this setting: dose: 50.0 mg/kg/injection, schedule: Q01DX005 (ip), vehicle: saline with Tween-80.
[2] abbreviates: dose: 100.0 mg/kg/injection, schedule: Q01DX005 (ip), vehicle: saline with Tween-80.
The mark [3] stands for this setting: dose: 200.0 mg/kg/injection, schedule: Q01DX005 (ip), vehicle: saline with Tween-80.
[4] abbreviates: dose: 50.0 mg/kg/injection, schedule: Q01DX001 (ip), vehicle: saline.
Where [5] appears, read: dose: 100.0 mg/kg/injection, schedule: Q01DX001 (ip), vehicle: saline.
The mark [6] stands for this setting: dose: 200.0 mg/kg/injection, schedule: Q01DX001 (ip), vehicle: saline.
The mark [7] stands for this setting: dose: 50.0 mg/kg/injection, schedule: Q01DX009 (ip), vehicle: saline.
Setting [8] is: dose: 100.0 mg/kg/injection, schedule: Q04DX003 (ip), vehicle: saline.
[9] abbreviates: dose: 200.0 mg/kg/injection, schedule: Q04DX003 (ip), vehicle: saline.
Where [10] appears, read: dose: 50.0 mg/kg/injection, schedule: Q01DX009 (ip), vehicle: saline with Tween-80.
[11] abbreviates: dose: 100.0 mg/kg/injection, schedule: Q01DX009 (ip), vehicle: saline with Tween-80.
[12] abbreviates: dose: 200.0 mg/kg/injection, schedule: Q01DX009 (ip), vehicle: saline with Tween-80.
Setting [13] is: dose: 100.0 mg/kg/injection, schedule: Q04DX003 (ip), vehicle: saline with Tween-80.
[14] abbreviates: dose: 200.0 mg/kg/injection, schedule: Q04DX003 (ip), vehicle: saline with Tween-80.
Where [15] appears, read: dose: 400.0 mg/kg/injection, schedule: Q04DX003 (ip), vehicle: saline with Tween-80.

For the compound `CC(=O)Nc1ccc(OC(=O)Nc2ccc(C)c(NC(=O)Oc3ccc(NC(C)=O)cc3)c2)cc1`, the T/C runs as follows: under setting [1], 96 % of control; under setting [2], 102 % of control; under setting [3], 119 % of control.
On to `CCOC(=O)N(C)C1CCC1NC` (stereo unspecified), for which the T/C was 100 % of control under setting [4], 95 % of control under setting [5] and 95 % of control under setting [6].
Turning to `NC(CO)C(=O)O.[Cl-].[Cl-].[Cl-].[Cl-].[Pt+2]` (stereo unspecified), under setting [7], the T/C is 116 % of control.
For the compound `C[N+]1(C2CCC3CCC2C3O)CCCCC1` (stereo unspecified), the T/C is 90 % of control under setting [8] and 122 % of control under setting [9].
Turning to `C[Si](C)(C)C1CO1` (stereo unspecified), the T/C runs as follows: under setting [10], 106 % of control; under setting [11], 106 % of control; under setting [12], 102 % of control.
With `COC(OC)c1nc(SC)[nH]c(=O)c1C[N+](C)(C)C`, the T/C was 100 % of control under setting [13], 100 % of control under setting [14] and 113 % of control under setting [15].
For the compound `O=C1c2ccccc2-c2cc(-c3ccccc3)cc(-c3ccccc3)c21`, the T/C was 100 % of control (dose: 100.0 mg/kg/injection, schedule: Q04DX003 (ip), vehicle: Klucel (hydroxypropylcellulose) (HPC)); 100 % of control (dose: 200.0 mg/kg/injection, schedule: Q04DX003 (ip), vehicle: Klucel (hydroxypropylcellulose) (HPC)); 100 % of control (dose: 400.0 mg/kg/injection, schedule: Q04DX003 (ip), vehicle: Klucel (hydroxypropylcellulose) (HPC)).
Consider `CN=S(=O)(OCC1CCC1COS(=O)(=NC)c1ccc(C)cc1)c1ccc(C)cc1` (stereo unspecified), for which the T/C reads like this: (dose: 12.5 mg/kg/injection, schedule: Q01DX009 (ip), vehicle: saline with Tween-80) 109 % of control; (dose: 12.5 mg/kg/injection, schedule: Q01DX009 (ip), vehicle: saline) 93 % of control; (dose: 25.0 mg/kg/injection, schedule: Q01DX009 (ip), vehicle: saline with Tween-80) 100 % of control; (dose: 25.0 mg/kg/injection, schedule: Q01DX009 (ip), vehicle: saline) 93 % of control; under setting [10], 90 % of control and 120 % of control; under setting [7], 90 % of control. The T/C was 107 % of control and 114 % of control under setting [11]; 93 % of control (dose: 100.0 mg/kg/injection, schedule: Q01DX009 (ip), vehicle: saline); 116 % of control under setting [12].
In the case of `NNc1nccnc1Cl`, the T/C under setting [8] is 105 % of control and the T/C under setting [9] was 103 % of control.
Turning to `NC(=O)NC(C(=O)O)(c1ccccc1)C1CCC1` (stereo unspecified), the T/C is, setting by setting: (dose: 50.0 mg/kg/injection, schedule: Q04DX003 (ip), vehicle: saline with Tween-80) 99 % of control; under setting [13], 91 % of control; under setting [14], 95 % of control; under setting [15], 95 % of control.
Consider `O=C1C(NCC(O)CO)=C(N2CC2)C(=O)C(NCC(O)CO)=C1N1CC1` (stereo unspecified), for which the T/C is, setting by setting: (dose: 0.5 mg/kg/injection, schedule: Q01DX009 (ip), vehicle: saline) 98 % of control; (dose: 1.5 mg/kg/injection, schedule: Q01DX009 (ip), vehicle: saline) 233 % of control; (dose: 2.0 mg/kg/injection, schedule: Q01DX009 (ip), vehicle: saline) 116 % of control and 213 % of control; (dose: 4.0 mg/kg/injection, schedule: Q01DX009 (ip), vehicle: saline) 241 % of control and 243 % of control; (dose: 6.0 mg/kg/injection, schedule: Q01DX009 (ip), vehicle: saline) 107 % of control.
On to `ClCC#Cc1ccccc1`, for which the T/C (dose: 12.5 mg/kg/injection, schedule: Q01DX009 (ip), vehicle: Klucel (hydroxypropylcellulose) (HPC)) is 109 % of control; the T/C (dose: 25.0 mg/kg/injection, schedule: Q01DX009 (ip), vehicle: Klucel (hydroxypropylcellulose) (HPC)) was 86 % of control; the T/C (dose: 50.0 mg/kg/injection, schedule: Q01DX009 (ip), vehicle: Klucel (hydroxypropylcellulose) (HPC)) was 100 % of control.
As for `O=C(COc1cccc(Cl)c1)Nc1cccnc1`, the T/C is, setting by setting: (dose: 100.0 mg/kg/injection, schedule: Q01DX001 (ip), vehicle: Klucel (hydroxypropylcellulose) (HPC)) 99 % of control; (dose: 200.0 mg/kg/injection, schedule: Q01DX001 (ip), vehicle: Klucel (hydroxypropylcellulose) (HPC)) 99 % of control.
Regarding `COc1ccc2c(c1)CCC(CC(C)=O)C2=O` (stereo unspecified), the T/C is, setting by setting: (dose: 100.0 mg/kg/injection, schedule: Q04DX003 (ip), vehicle: saline sonified) 104 % of control; (dose: 200.0 mg/kg/injection, schedule: Q04DX003 (ip), vehicle: saline sonified) 104 % of control; (dose: 400.0 mg/kg/injection, schedule: Q04DX003 (ip), vehicle: saline sonified) 104 % of control.
`COc1cc(NS(C)(=O)=O)ccc1Nc1c2ccc([N+](=O)[O-])cc2nc2c(C)cccc12`: the T/C is 112 % of control (dose: 0.1 mg/kg/injection, schedule: Q04DX003 (ip), vehicle: saline with Tween-80); 120 % of control (dose: 0.2 mg/kg/injection, schedule: Q04DX003 (ip), vehicle: saline with Tween-80); 200 % of control (dose: 0.86 mg/kg/injection, schedule: Q04DX003 (ip), vehicle: saline with Tween-80); 165 % of control (dose: 1.3 mg/kg/injection, schedule: Q04DX003 (ip), vehicle: saline with Tween-80); 184 % of control (dose: 2.0 mg/kg/injection, schedule: Q04DX003 (ip), vehicle: saline with Tween-80); 230 % of control and 204 % of control (dose: 3.0 mg/kg/injection, schedule: Q04DX003 (ip), vehicle: saline with Tween-80). Also, the T/C (dose: 5.0 mg/kg/injection, schedule: Q04DX003 (ip), vehicle: saline with Tween-80) was 241 % of control; the T/C (dose: 8.0 mg/kg/injection, schedule: Q04DX003 (ip), vehicle: saline with Tween-80) is 230 % of control and 241 % of control; the T/C (dose: 12.0 mg/kg/injection, schedule: Q04DX003 (ip), vehicle: saline with Tween-80) is 230 % of control; the T/C (dose: 18.0 mg/kg/injection, schedule: Q04DX003 (ip), vehicle: saline with Tween-80) is 123 % of control.
As to `OC1CCC2(CC1)SCCS2`, the T/C by setting is: (dose: 100.0 mg/kg/injection, schedule: Q01DX001 (ip), vehicle: saline with Tween-80) 96 % of control; (dose: 200.0 mg/kg/injection, schedule: Q01DX001 (ip), vehicle: saline with Tween-80) 103 % of control; (dose: 400.0 mg/kg/injection, schedule: Q01DX001 (ip), vehicle: saline with Tween-80) 101 % of control.
Consider `CCOC(=O)C1=C(C)NC(C)=C(C(=O)OCC)C1c1cc(OC)c(OC)c(OC)c1`, for which the T/C runs as follows: (dose: 25.0 mg/kg/injection, schedule: Q01DX009 (ip), vehicle: other) 100 % of control; (dose: 50.0 mg/kg/injection, schedule: Q01DX009 (ip), vehicle: other) 95 % of control; (dose: 100.0 mg/kg/injection, schedule: Q01DX009 (ip), vehicle: other) 96 % of control; (dose: 200.0 mg/kg/injection, schedule: Q01DX009 (ip), vehicle: other) 95 % of control; (dose: 400.0 mg/kg/injection, schedule: Q01DX009 (ip), vehicle: other) 87 % of control.
Consider `O=C1C(Cl)=CC(=NS(=O)(=O)c2ccccc2)C=C1Cl`, for which the T/C (dose: 3.13 mg/kg/injection, schedule: Q04DX003 (ip), vehicle: saline with Tween-80) is 110 % of control; the T/C (dose: 6.25 mg/kg/injection, schedule: Q04DX003 (ip), vehicle: saline with Tween-80) is 110 % of control; the T/C (dose: 12.5 mg/kg/injection, schedule: Q04DX003 (ip), vehicle: saline with Tween-80) was 110 % of control.
With `NOCc1c(F)c(F)c(F)c(F)c1F`, the T/C is 113 % of control under setting [4], 104 % of control under setting [5] and 95 % of control under setting [6].
As to `CC1(C)OC2(C)CCC1C(=O)C2N1CCCCC1` (stereo unspecified), the T/C by setting is: under setting [1], 105 % of control; under setting [2], 95 % of control; under setting [3], 101 % of control.
Regarding `CCOC(=O)c1ccc(NS(=O)c2ccccc2)cc1` (stereo unspecified), the T/C reads like this: under setting [10], 100 % of control; under setting [11], 93 % of control; under setting [12], 111 % of control.
